US20150274719A1, “AMINO-SUBSTITUTED IMIDAZO[1,2-A]PYRIDINECARBOXAMIDES AND THEIR USE” (BAYER PHARMA AKTIENGESELLSCHAFT, priority 2012, published 2015)
Structures can show the parent of a compound that is named as a salt.

The compounds below were run against T1, recombinant guanylate cyclase reporter cell line (Rattus norvegicus, UniProt P19686+P20595) (assay: Action on recombinant guanylate cyclase reporter cell line). Conditions: in some cases mean values from individual determinations.
T1 construct: expressed in transfected cells; host or cells: recombinant reporter cell line
T1 sequence (P19686 1-690): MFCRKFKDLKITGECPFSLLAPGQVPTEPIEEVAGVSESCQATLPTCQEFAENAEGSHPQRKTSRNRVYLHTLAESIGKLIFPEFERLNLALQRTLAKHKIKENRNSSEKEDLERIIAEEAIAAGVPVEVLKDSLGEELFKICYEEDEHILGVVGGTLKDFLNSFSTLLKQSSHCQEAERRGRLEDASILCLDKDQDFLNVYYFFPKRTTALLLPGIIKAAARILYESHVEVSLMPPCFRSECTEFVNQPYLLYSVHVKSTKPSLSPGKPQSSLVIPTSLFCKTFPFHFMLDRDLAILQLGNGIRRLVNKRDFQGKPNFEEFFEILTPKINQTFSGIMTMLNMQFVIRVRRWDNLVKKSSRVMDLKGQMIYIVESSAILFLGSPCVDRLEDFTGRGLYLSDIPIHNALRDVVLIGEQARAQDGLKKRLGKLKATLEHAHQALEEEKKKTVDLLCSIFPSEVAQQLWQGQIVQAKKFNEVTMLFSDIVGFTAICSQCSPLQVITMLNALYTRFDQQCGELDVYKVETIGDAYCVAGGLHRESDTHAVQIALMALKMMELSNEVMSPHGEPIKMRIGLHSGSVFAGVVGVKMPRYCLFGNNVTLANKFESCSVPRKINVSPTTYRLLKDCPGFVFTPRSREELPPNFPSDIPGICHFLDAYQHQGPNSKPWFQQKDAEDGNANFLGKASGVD
T1 sequence (P20595 1-619): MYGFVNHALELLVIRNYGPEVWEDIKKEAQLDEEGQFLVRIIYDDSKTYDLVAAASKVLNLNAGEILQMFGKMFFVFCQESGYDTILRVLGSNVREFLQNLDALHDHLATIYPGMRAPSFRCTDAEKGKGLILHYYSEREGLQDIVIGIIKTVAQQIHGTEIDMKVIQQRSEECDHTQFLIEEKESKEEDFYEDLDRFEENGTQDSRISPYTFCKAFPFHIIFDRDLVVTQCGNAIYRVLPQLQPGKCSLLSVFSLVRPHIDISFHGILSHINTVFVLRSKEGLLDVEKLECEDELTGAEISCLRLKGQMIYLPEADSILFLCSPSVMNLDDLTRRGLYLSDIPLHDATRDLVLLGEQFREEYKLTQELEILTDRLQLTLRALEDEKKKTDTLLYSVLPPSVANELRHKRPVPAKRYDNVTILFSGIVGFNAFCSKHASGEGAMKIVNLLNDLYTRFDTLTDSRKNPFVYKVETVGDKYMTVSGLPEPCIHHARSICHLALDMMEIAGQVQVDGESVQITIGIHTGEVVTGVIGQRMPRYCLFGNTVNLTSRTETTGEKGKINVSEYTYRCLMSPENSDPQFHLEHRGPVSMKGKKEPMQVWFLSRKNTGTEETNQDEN
Assay type: cell-based
Method: B-2. Action on Recombinant Guanylate Cyclase Reporter Cell Line
The cellular action of the compounds according to the invention is determined on a recombinant guanylate cyclase reporter cell line, as described in F. Wunder et al., Anal. Biochem. 339, 104-112 (2005).
Representative MEC values (MEC=minimal effective concentration) for the compounds according to the invention are shown in the following table (in some cases as mean values obtained from individual determinations): […]

In order of rising “MEC (minimal effective concentration)” value:
1. Cc1nc2c(OCc3c(F)cccc3F)cccn2c1C(=O)NCC(C)(N)CCOCc1ccccc1 (racemic) [Example 264, rac-N-[2-amino-4-(benzyloxy)-2-methylbutyl]-8-[(2,6-difluorobenzyl)oxy]-2-methylimidazo[1,2-a]pyridine-3-carboxamide]  0.03 µM
2. Cc1cc(OCc2c(F)cccc2F)c2nc(C)c(C(=O)NC(CN)c3cccc(Br)c3)n2c1 (racemic) [Example 383, rac-N-[2-amino-1-(3-bromophenyl)ethyl]-8-[(2,6-difluorobenzyl)oxy]-2,6-dimethylimidazo[1,2-a]pyridine-3-carboxamide]  0.30 µM
3. Cc1nc2c(OCc3c(F)cccc3F)cccn2c1C(=O)NC(C)[C@H](C)N (single isomer, unassigned) [Example 174]  0.30 µM
4. Cc1cc(OCc2c(F)cccc2F)c2nc(C)c(C(=O)NC(CN)c3ccc4c(c3)OCCO4)n2c1 (racemic) [Example 388, rac-N-[2-amino-1-(2,3-dihydro-1,4-benzodioxin-6-yl)ethyl]-8-[(2,6-difluorobenzyl)oxy]-2,6-dimethylimidazo[1,2-a]pyridine-3-carboxamide]  0.30 µM
5. Cc1cc(OCc2c(F)cccc2F)c2nc(C)c(C(=O)NCC(N)COC(C)C)n2c1 (racemic) [Example 206, rac-N-(2-Amino-3-isopropoxypropyl)-8-[(2,6-difluorobenzyl)oxy]-2,6-dimethylimidazo[1,2-a]-pyridine-3-carboxamide]  0.30 µM
6. Cc1cc(OCc2c(F)cccc2F)c2nc(C)c(C(=O)NC3C(N)C3(C)C)n2c1 (racemic) [Example 341, rac-N-(3-amino-2,2-dimethylcyclopropyl)-8-[(2,6-difluorobenzyl)oxy]-2,6-dimethylimidazo[1,2-a]pyridine-3-carboxamide (racemate)]  0.30 µM
7. Cc1cc(OCc2c(F)cccc2F)c2nc(C)c(C(=O)NCC(C)(N)C(F)(F)F)n2c1 (racemic) [Example 239, rac-N-(2-Amino-3,3,3-trifluoro-2-methylpropyl)-8-[(2,6-difluorobenzyl)oxy]-2,6-dimethyl-imidazo[1,2-a]pyridine-3-carboxamide]  0.30 µM
8. Cc1cc(OCc2c(F)cccc2F)c2nc(C)c(C(=O)NCC3CS(=O)(=O)CCN3)n2c1 (racemic) [Example 414, rac-8-[(2,6-difluorobenzyl)oxy]-N-[(1,1-dioxidothiomorpholin-3-yl)methyl]-2,6-dimethylimidazo[1,2-a]pyridine-3-carboxamide]  0.30 µM
9. Cc1nc2c(OCc3c(F)cccc3F)cccn2c1C(=O)NC(CN)CC(F)(F)F (single isomer, unassigned; enantiomer b) [Example 3, ent-N-(1-Amino-4,4,4-trifluorobutan-2-yl)-8-[(2,6-difluorobenzyl)oxy]-2-methylimidazo[1,2-a]-pyridine-3-carboxamide (Enantiomer B)]  0.30 µM
10. Cc1cc(OCc2c(F)cccc2F)c2nc(C)c(C(=O)NC(CN)c3cccc(OCCO)c3)n2c1 (racemic) [Example 393, rac-N-{2-amino-1-[3-(2-hydroxyethoxy)phenyl]ethyl}-8-[(2,6-difluorobenzyl)oxy]-2,6-dimethylimidazo[1,2-a]pyridine-3-carboxamide]  1.00 µM
11. Cc1nc2c(OCc3c(F)cccc3F)cccn2c1C(=O)NCC(C(C)C)N(C)C (racemic) [Example 142, rac-8-[(2,6-difluorobenzyl)oxy]-N-[2-(dimethyl-amino)-3-methylbutyl]-2-methylimidazo[1,2-a]-pyridine-3-carboxamide]  1.00 µM
12. Cc1cc(OCc2c(F)cccc2F)c2nc(C)c(C(=O)NCC3(N)COC3)n2c1 [Example 216, N-[(3-Aminooxetan-3-yl)methyl]-8-[(2,6-difluorobenzyl)oxy]-2,6-dimethylimidazo[1,2-a]pyridine-3-carboxamide]  1.00 µM
13. Cc1nc2c(OCc3c(F)cccc3F)cccn2c1C(=O)NC1CNc2ccccc2C1 (racemic) [Example 75, rac-8-[(2,6-Difluorobenzyl)oxy]-2-methyl-N-(1,2,3,4-tetrahydroquinolin-3-yl)imidazo[1,2-a]-pyridine-3-carboxamide]  1.00 µM
14. Cc1nc2c(OCc3c(F)cccc3F)cc(Cl)cn2c1C(=O)NCC(N)COC(C)C (racemic) [Example 217, rac-N-(2-Amino-3-isopropoxypropyl)-6-chloro-8-[(2,6-difluorobenzyl)oxy]-2-methylimidazo[1,2-a]pyridine-3-carboxamide]  1.00 µM
15. Cc1nc2c(OCc3c(F)cc(F)cc3F)cccn2c1C(=O)NC(CN)c1ccc(F)c(F)c1 (stereo not drawn) [Example 101, ent-N-[2-amino-1-(3,,4-difluorophenyl)ethyl]-2-methyl-8-[(2,4,6-trifluorobenzyl)oxy]imidazo[1,2-a]pyridine-3-carboxamide]  1.00 µM
16. Cc1nc2c(OCc3c(F)cccc3F)cccn2c1C(=O)NCC(C)CN (single isomer, unassigned) [Example 96, ent-N-(3-Amino-2-methylpropyl)-8-[(2,6-difluorobenzyl)oxy]-2-methylimidazo[1,2-a]pyridine-3-carboxamide dihydrochloride]  1.00 µM
17. Cc1cc(OCc2c(F)cccc2F)c2nc(C)c(C(=O)NCC(N)c3cc(F)c(F)c(F)c3)n2c1 (racemic) [Example 374, rac-N-[2-amino-2-(3,4,5-trifluorophenyl)ethyl]-8-[(2,6-difluorobenzyl)oxy]-2,6-dimethylimidazo[1,2-a]pyridine-3-carboxamide]  1.00 µM
18. Cc1cc(OCc2c(F)cccc2F)c2nc(C)c(C(=O)NC34CCC3CNC4)n2c1 (racemic) [Example 346, rac-N-(3-azabicyclo[3.2.0]hept-1-yl)-8-[(2,6-difluorobenzyl)oxy]-2,6-dimethylimidazo[1,2-a]pyridine-3-carboxamide]  1.00 µM
19. COCC(C)(N)CNC(=O)c1c(C)nc2c(OCc3c(F)cccc3F)cccn12 (racemic) [Example 213, rac-N-(2-Amino-3-methoxy-2-methylpropyl)-8-[(2,6-difluorobenzyl)oxy]-2-methylimidazo[1,2-a]-pyridine-3-carboxamide]  1.00 µM
20. Cc1nc2c(OCc3c(F)cccc3F)cc(Cl)cn2c1C(=O)NCCCN [Example 37, N-(3-aminopropyl)-6-chloro-8-[(2,6-difluorobenzyl)oxy]-2-methylimidazo[1,2-a]pyridine-3-carboxamide]  1.00 µM
21. Cc1nc2c(OCc3c(F)cccc3F)cccn2c1C(=O)N[C@H]1CCNC1 [Example 61, 8-[(2,6-Difluorobenzyl)oxy]-2-methyl-N-[(3S)-pyrrolidin-3-yl]imidazo[1,2-a]pyridine-3-carboxamide]  3.00 µM
22. Cc1cc(OCc2c(F)cccc2F)c2nc(C)c(C(=O)NCC(N)c3csc4ccccc34)n2c1 (racemic) [Example 373, rac-N-[2-amino-2-(1-benzothiophen-3-yl)ethyl]-8-[(2,6-difluorobenzyl)oxy]-2,6-dimethylimidazo[1,2-a]pyridine-3-carboxamide]  3.00 µM
23. CC(=O)Nc1cccc(C(CN)NC(=O)c2c(C)nc3c(OCc4c(F)cccc4F)cc(C)cn23)c1 (racemic) [Example 396, rac-N-[1-(3-acetamidophenyl)-2-aminoethyl]-8-[(2,6-difluorobenzyl)oxy]-2,6-dimethylimidazo[1,2-a]pyridine-3-carboxamide]  3.00 µM
